Data on eleven compounds can be found in ChEMBL document CHEMBL1122468, “Synthesis of (7R)-7H-indolo[3,4-gh][1,4]benzoxazines, a new class of D-heteroergolines with dopamine agonist activity” (J Med Chem, 1983).

The target of experiment [1] is T1, Cerebral cortex alpha adrenergic receptor (Bos taurus, UniProt Q28838+P18130).
T1 sequence (Q28838 whole entry): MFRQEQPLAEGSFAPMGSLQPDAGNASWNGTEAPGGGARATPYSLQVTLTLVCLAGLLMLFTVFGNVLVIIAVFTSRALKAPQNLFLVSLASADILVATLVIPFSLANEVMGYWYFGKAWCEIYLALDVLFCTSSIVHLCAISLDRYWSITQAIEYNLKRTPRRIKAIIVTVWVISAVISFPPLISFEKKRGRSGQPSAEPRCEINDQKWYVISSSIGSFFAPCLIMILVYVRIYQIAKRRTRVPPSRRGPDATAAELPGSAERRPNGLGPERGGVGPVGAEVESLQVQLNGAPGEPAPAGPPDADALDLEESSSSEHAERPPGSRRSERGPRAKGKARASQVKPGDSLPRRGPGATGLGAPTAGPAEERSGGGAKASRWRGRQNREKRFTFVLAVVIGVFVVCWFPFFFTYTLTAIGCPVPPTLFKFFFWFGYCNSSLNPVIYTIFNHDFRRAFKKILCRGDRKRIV
T1 sequence (P18130 whole entry): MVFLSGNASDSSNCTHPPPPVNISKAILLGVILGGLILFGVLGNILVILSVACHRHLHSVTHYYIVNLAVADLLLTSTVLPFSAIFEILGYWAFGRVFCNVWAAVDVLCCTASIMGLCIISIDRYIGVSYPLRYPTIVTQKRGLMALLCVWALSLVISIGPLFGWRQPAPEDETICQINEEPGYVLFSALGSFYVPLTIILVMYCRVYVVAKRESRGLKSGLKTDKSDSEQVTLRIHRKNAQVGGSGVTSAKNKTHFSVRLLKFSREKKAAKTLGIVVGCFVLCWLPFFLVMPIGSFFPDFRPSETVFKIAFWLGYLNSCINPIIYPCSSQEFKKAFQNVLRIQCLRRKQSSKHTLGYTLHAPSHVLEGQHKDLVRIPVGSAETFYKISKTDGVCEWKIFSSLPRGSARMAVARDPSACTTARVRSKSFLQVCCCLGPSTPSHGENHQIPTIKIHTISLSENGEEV
Description: In vitro affinity for alpha adrenergic receptor by displacement of 3[H]clonidine in calf cerebral cortex. The format is tissue-based.

A further experiment has as its target Dopamine receptor. Description: In vitro affinity for dopamine receptor by displacement of [3H]- apomorphine in rat striatal membranes. The format is cell membranes, Membrane.
Another experiment deals with Rattus norvegicus. Description: In vivo measure of dopaminergic activity by the induction of contralateral turning behavior in 6-hydroxydopamine (6-OHDA) lesioned rats, ip. The format is functional.
Setting [2] is: Rattus norvegicus, ip, read-out: ED50.

For `c1cc2c3c(c[nH]c3c1)C[C@H]1NCCO[C@H]21`, the figures for the IC50 (in experiment [1]; at Dopamine receptor) were 55 nM and 59.6 nM, respectively. The ED50 in the experiment on Rattus norvegicus (setting [2]) was determined as 0.76 mg/kg.
Turning to `CN1CCO[C@@H]2c3cccc4[nH]cc(c34)C[C@H]21`, the 50% inhibitory concentration (IC50) in experiment [1] is reported as 27 nM; on Dopamine receptor, 28.9 nM. Moreover, in the experiment on Rattus norvegicus (setting [2]), the 50% effective dose (ED50) turned out to be 0.18 mg/kg.
As for `CCCCN1CCO[C@@H]2c3cccc4[nH]cc(c34)C[C@H]21`, the IC50 in experiment [1] is given as 46 nM; at Dopamine receptor, 33 nM. Besides, in the experiment on Rattus norvegicus (setting [2]), the ED50 amounted to 1.1 mg/kg.
On to `C=CCN1CCO[C@@H]2c3cccc4[nH]cc(c34)C[C@H]21`, for which the values for the 50% inhibitory concentration (IC50) (in experiment [1]; on Dopamine receptor) were 206 nM and 23 nM, respectively. Moreover, the median effective dose (ED50) with Rattus norvegicus (setting [2]) stood at 0.15 mg/kg.
Take `CCCN1CCO[C@@H]2c3cccc4[nH]cc(c34)C[C@H]21`: the values for the IC50 (in experiment [1]; on Dopamine receptor) were 31 nM and 2.2 nM, respectively. Moreover, in the experiment on Rattus norvegicus (setting [2]), the ED50 was 0.028 mg/kg.
In the case of `CCN1CCO[C@@H]2c3cccc4[nH]cc(c34)C[C@H]21` (relative stereo), the concentration for half-maximal inhibition (IC50) in experiment [1] was 1354 nM; at Dopamine receptor it was 1240 nM. The same compound returned a median effective dose (ED50) in the experiment with Rattus norvegicus of over 5 mg/kg.
Taken in the same sequence, the figures for `CCN1CCO[C@@H]2c3cccc4[nH]cc(c34)C[C@H]21` (stereo in doubt; 6b) were 15 nM, 4.65 nM and 0.09 mg/kg.
As for `CCN1CCO[C@@H]2c3cccc4[nH]cc(c34)C[C@H]21` (stereo in doubt; (+)6b), the IC50 in experiment [1] is given as 34 nM; on Dopamine receptor, 219 nM. In addition, in the experiment on Rattus norvegicus, the ED50 is 7.5 mg/kg.
The matching figures for `CCN1CCO[C@@H]2c3cccc4[nH]cc(c34)C[C@H]21` (stereo in doubt; (-)6b): 7 nM, 2 nM and 0.027 mg/kg.
Take `CC(C)C[C@H]1C(=O)N2CCC[C@H]2[C@]2(O)O[C@](NC(=O)[C@@H]3C=C4c5cccc6[nH]c(Br)c(c56)C[C@H]4N(C)C3)(C(C)C)C(=O)N12` [BROMOCRIPTINE]: in the experiment with Rattus norvegicus (setting [2]), the ED50 was found to be 2.8 mg/kg.
With `CCCN1C[C@H](CSC)C[C@@H]2c3cccc4[nH]cc(c34)C[C@H]21` [PERGOLIDE], the ED50 in the experiment on Rattus norvegicus (setting [2]) was found to be 0.1 mg/kg.
